Reference: the NIST ThermoML archive (doi:10.1016/j.tca.2016.05.006)
± gives the expanded uncertainty stated by the source.

Details: 298.15 K, 101.33 kPa, Liquid

- electrical conductivity (Alternating current cell with electrodes): 9.2e-05 ± 2e-06 S/m
- thermal conductivity (Transient line heat source): 0.2438 ± 0.011 W/m/K
SMILES: OCCO [1,2-ethanediol]
